Results taken from PubChem BioAssay (NCI).
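Cultured in 96-well plates, cells were exposed to test compound for 48 hours across five concentrations. Abbreviation: GI50, concentration required for 50% inhibition of growth. TGI denotes the concentration required for complete inhibition of growth.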

How the values were obtained:
Test in all cases: NCI-60 cell line screen, 48 h
[1] = tested on: MDA-MB-435
[2] = tested on: MOLT-4 leukemia
[3] = tested on: CAKI-1 renal
[4] = tested on: U251 CNS
[5] = tested on: OVCAR-4 ovarian
[6] = tested on: NCI-H522 lung
[7] = tested on: IGROV1 ovarian
[8] = tested on: SNB-19 CNS
[9] = tested on: TK-10 renal
[10] = tested on: HL-60(TB) leukemia
[11] = tested on: RPMI-8226 leukemia
[12] = tested on: HOP-62 NSCLC
[13] = tested on: HCT-15 colon
[14] = tested on: HT29 colon
[15] = tested on: SR leukemia
[16] = tested on: NCI/ADR-RES ovarian
[17] = tested on: SK-OV-3 ovarian
[18] = tested on: KM12 colon
[19] = tested on: SK-MEL-2 melanoma
[20] = tested on: SNB-75 CNS
[21] = tested on: RXF 393 renal
[22] = tested on: SF-268 CNS
[23] = tested on: A549 NSCLC
[24] = tested on: K-562 leukemia
[25] = tested on: HS 578T breast
[26] = tested on: HOP-92 NSCLC
[27] = tested on: ACHN renal
[28] = tested on: SK-MEL-5 melanoma
[29] = tested on: UO-31 renal
[30] = tested on: BT-549 breast
[31] = tested on: OVCAR-8 ovarian
[32] = tested on: OVCAR-5 ovarian
[33] = tested on: HCC-2998 colon
[34] = tested on: MCF7 breast
[35] = tested on: SW-620 colon
[36] = tested on: CCRF-CEM leukemia
[37] = tested on: UACC-62 melanoma
[38] = tested on: SK-MEL-28 melanoma
[39] = tested on: HCT-116 colon
[40] = tested on: OVCAR-3 ovarian
[41] = tested on: M14 melanoma
[42] = tested on: SF-295 CNS
[43] = tested on: MALME-3M melanoma
[44] = tested on: MDA-MB-231 breast
[45] = tested on: NCI-H460 lung
[46] = tested on: A498 renal
[47] = tested on: DU-145 prostate
[48] = tested on: T-47D breast
[49] = tested on: PC-3 prostate
[50] = tested on: NCI-H226 lung
[51] = tested on: SF-539 CNS
[52] = tested on: COLO 205 colon
[53] = tested on: SN12C renal
[54] = tested on: UACC-257 melanoma
[55] = tested on: 786-0 renal
[56] = tested on: LOX IMVI melanoma
[57] = tested on: EKVX NSCLC

SMILES: COc1cc2cc(Oc3ccc(NC(=O)c4cccc(C(F)(F)F)c4)cc3)c(C)nc2cc1OCCN1CCCCC1
- GI50 [1]: 16.7 µM
- TGI [1]: 31.4 µM
- GI50 [2]: 20.9 µM
- TGI [2]: 58.5 µM
- GI50 [3]: 16 µM
- TGI [3]: 32.2 µM
- GI50 [4]: 17.8 µM
- TGI [4]: 34 µM
- GI50 [5]: 19.4 µM
- TGI [5]: 45.7 µM
- GI50 [6]: 16 µM
- TGI [6]: 31.3 µM
- GI50 [7]: 38.4 µM
- TGI [7]: > 100 µM
- GI50 [8]: 34.8 µM
- TGI [8]: > 100 µM
- GI50 [9]: > 100 µM
- TGI [9]: > 100 µM
- GI50 [10]: 19.6 µM
- TGI [10]: 42.4 µM
- GI50 [11]: 20.6 µM
- TGI [11]: 52.4 µM
- GI50 [12]: 33.6 µM
- TGI [12]: > 100 µM
- GI50 [13]: 16 µM
- TGI [13]: 30.9 µM
- GI50 [14]: 18 µM
- TGI [14]: 37.1 µM
- GI50 [15]: 18.2 µM
- TGI [15]: 46.1 µM
- GI50 [16]: 33.9 µM
- TGI [16]: > 100 µM
- GI50 [17]: > 100 µM
- TGI [17]: > 100 µM
- GI50 [18]: 30.3 µM
- TGI [18]: > 100 µM
- GI50 [19]: > 100 µM
- TGI [19]: > 100 µM
- GI50 [20]: 15 µM
- TGI [20]: 29.9 µM
- GI50 [21]: 13.2 µM
- TGI [21]: 26.6 µM
- GI50 [22]: 20.4 µM
- TGI [22]: 43.4 µM
- GI50 [23]: 27.5 µM
- TGI [23]: > 100 µM
- GI50 [24]: 19.3 µM
- TGI [24]: 47 µM
- GI50 [25]: 19.4 µM
- TGI [25]: 53 µM
- GI50 [26]: 21.7 µM
- TGI [26]: > 100 µM
- GI50 [27]: 21.5 µM
- TGI [27]: 49.2 µM
- GI50 [28]: 17.1 µM
- TGI [28]: 30.9 µM
- GI50 [29]: 15.4 µM
- TGI [29]: 30 µM
- GI50 [30]: > 100 µM
- TGI [30]: > 100 µM
- GI50 [31]: 18.2 µM
- TGI [31]: 36.7 µM
- GI50 [32]: 41.4 µM
- TGI [32]: > 100 µM
- GI50 [33]: 18.2 µM
- TGI [33]: 34.6 µM
- GI50 [34]: 14.4 µM
- TGI [34]: 29.7 µM
- GI50 [35]: 21.3 µM
- TGI [35]: 42.8 µM
- GI50 [36]: 29.8 µM
- TGI [36]: > 100 µM
- GI50 [37]: 18.8 µM
- TGI [37]: 36.1 µM
- GI50 [38]: 17.1 µM
- TGI [38]: 31.4 µM
- GI50 [39]: 20.6 µM
- TGI [39]: 48.9 µM
- GI50 [40]: 22.3 µM
- TGI [40]: 47.6 µM
- GI50 [41]: 17.9 µM
- TGI [41]: 35.1 µM
- GI50 [42]: 18.3 µM
- TGI [42]: 34 µM
- GI50 [43]: 18.3 µM
- TGI [43]: 34 µM
- GI50 [44]: 18.4 µM
- TGI [44]: 36.9 µM
- GI50 [45]: 19 µM
- TGI [45]: 37.3 µM
- GI50 [46]: > 100 µM
- TGI [46]: > 100 µM
- GI50 [47]: 41.6 µM
- TGI [47]: > 100 µM
- GI50 [48]: 18.1 µM
- TGI [48]: 46.1 µM
- GI50 [49]: 19 µM
- TGI [49]: 42 µM
- GI50 [50]: > 100 µM
- TGI [50]: > 100 µM
- GI50 [51]: 16.9 µM
- TGI [51]: 30.9 µM
- GI50 [52]: 16.4 µM
- TGI [52]: 31 µM
- GI50 [53]: 17.6 µM
- TGI [53]: 34.4 µM
- GI50 [54]: 17.2 µM
- TGI [54]: 32.2 µM
- GI50 [55]: 16.5 µM
- TGI [55]: 32.8 µM
- GI50 [56]: 17.8 µM
- TGI [56]: 32.5 µM
- GI50 [57]: 31.6 µM
- TGI [57]: > 100 µM
